This note sets out measurements from patent US20240270821A1, “GIP/GLP1/GCG TRI-RECEPTOR AGONISTS AND USES THEREOF” (priority 2023, published 2024).

What all share (type): cell-based
Test [1] deals with T1, hGIPR (Homo sapiens, UniProt P48546).
T1 sequence (P48546 22-466): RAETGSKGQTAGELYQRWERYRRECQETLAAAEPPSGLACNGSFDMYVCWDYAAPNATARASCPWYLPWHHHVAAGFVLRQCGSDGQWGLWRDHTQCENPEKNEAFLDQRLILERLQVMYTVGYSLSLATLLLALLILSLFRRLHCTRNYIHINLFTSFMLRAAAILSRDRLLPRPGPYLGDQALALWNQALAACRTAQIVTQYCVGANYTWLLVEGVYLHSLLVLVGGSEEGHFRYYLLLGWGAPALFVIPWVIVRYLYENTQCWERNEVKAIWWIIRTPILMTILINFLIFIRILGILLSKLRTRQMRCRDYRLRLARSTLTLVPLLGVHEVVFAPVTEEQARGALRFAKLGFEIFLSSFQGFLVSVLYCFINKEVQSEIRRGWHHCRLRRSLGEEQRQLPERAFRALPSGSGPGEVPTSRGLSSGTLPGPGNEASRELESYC
In words: Functional cAMP activity in the presence of 1% HSA. The note with it: read-out: cAMP Rel EC50, hGIPR.

The target of test [2] is T2, hGLP-1R (Homo sapiens, UniProt P43220). In words: Functional cAMP activity in the presence of 1% HSA. As to conditions: read-out: cAMP Rel EC50, hGLP-1R.
T2 sequence (P43220 24-463): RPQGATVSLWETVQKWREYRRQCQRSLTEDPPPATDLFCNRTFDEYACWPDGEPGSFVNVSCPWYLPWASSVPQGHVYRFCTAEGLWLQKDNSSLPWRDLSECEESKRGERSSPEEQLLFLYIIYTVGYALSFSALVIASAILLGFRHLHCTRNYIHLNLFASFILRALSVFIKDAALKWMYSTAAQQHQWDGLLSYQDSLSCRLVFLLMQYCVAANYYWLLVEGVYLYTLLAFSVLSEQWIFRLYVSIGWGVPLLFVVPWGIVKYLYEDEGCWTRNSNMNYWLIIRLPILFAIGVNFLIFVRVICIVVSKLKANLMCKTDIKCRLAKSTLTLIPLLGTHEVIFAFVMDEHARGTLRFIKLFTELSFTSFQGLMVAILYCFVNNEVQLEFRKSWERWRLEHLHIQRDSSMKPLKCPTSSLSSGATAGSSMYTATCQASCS
For test [3], the target named is T2, hGLP-1R. In words: Functional cAMP activation in the presence of 0.1% casein (no HSA). The note with it: read-out: Relative cAMP EC50, hGLP-1R.
The target in another test is hGcgR (Homo sapiens, UniProt P47871). Described as above. The note with it: read-out: Relative cAMP EC50, hGcgR.
Sequence of hGcgR (P47871 26-477): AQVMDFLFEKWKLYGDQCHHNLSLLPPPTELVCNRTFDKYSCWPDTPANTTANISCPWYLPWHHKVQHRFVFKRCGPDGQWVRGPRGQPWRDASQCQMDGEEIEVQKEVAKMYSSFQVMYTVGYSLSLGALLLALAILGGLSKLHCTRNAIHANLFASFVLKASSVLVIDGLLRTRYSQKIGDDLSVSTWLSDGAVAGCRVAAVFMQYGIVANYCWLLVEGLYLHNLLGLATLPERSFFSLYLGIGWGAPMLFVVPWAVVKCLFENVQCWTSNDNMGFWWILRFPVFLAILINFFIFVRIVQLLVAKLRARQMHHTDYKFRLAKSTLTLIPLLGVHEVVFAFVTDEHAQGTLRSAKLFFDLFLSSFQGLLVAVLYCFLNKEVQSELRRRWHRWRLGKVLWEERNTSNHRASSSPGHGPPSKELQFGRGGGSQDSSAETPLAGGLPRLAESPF
Test [4] deals with T1, hGIPR. The description is as above. As to conditions: read-out: Relative cAMP EC50, hGIPR.
The next test addresses human GcgR (Homo sapiens, UniProt P47871). Nature of the test: Functional cAMP activity in the presence of 1% HSA. As to conditions: read-out: cAMP Rel EC50, hGcgR.
Setting [5] is: in the presence of 0.1% casein (no HSA), geometric mean.

Read-outs that look alike come from different tables or passages of the source. Starred links: 1 amine or outer side, 2 acyl side, 3 side chain; linkers in the order of their positions; H or OH if unused. Non-standard residues stand in square brackets, D forms with d. Groups on a side chain read outwards from the residue. No end group written: not given here. *: point of attachment. C20 diacid = O=C(O)CCCCCCCCCCCCCCCCCCC(=O)*; C18 diacid = O=C(O)CCCCCCCCCCCCCCCCC(=O)*; Phe(4-CN) = N#Cc1ccc(C[C@H](N)C(=O)O)cc1; αMePhe(2-F) = C[C@](N)(Cc1ccccc1F)C(=O)O; γGlu = O=C(O)[C@H](CCC(=O)[*:2])N[*:1]; αMe4Pal = C[C@](N)(Cc1ccncc1)C(=O)O; αMeY = C[C@](N)(Cc1ccc(O)cc1)C(=O)O; 4Pal = N[C@@H](Cc1ccncc1)C(=O)O; αMeL = CC(C)C[C@](C)(N)C(=O)O; αMeS = C[C@](N)(CO)C(=O)O; Orn = NCCC[C@H](N)C(=O)O; AEEA = NCCOCCOCC(=O)O; Aib = CC(C)(N)C(=O)O
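For Relative cAMP EC50, hGIPR in this document: intracellular cAMP rise after 30 min at 37 °C read by HTRF against a standard curve, scaled between buffer alone (0%) and top control ligand concentration (100%), four-parameter fit.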
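For Relative cAMP EC50, hGLP-1R in this document: intracellular cAMP rise after 30 min at 37 °C read by HTRF, normalized between buffer only (0%) and maximal control ligand (100%), four-parameter variable-slope fit.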
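For Relative cAMP EC50, hGcgR in this document: intracellular cAMP rise after 30 min at 37 °C, read by HTRF against a cAMP standard curve, scaled from buffer only (0%) to maximal control ligand response (100%).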

Sequence of human GcgR (P47871 26-477): as above

The EC50 is the concentration that produces a half-maximal response. As for `CC[C@H](C)[C@H](NC(=O)[C@H](CC(C)C)NC(=O)[C@](C)(Cc1ccc(O)cc1)NC(=O)[C@H](CCC(=O)O)NC(=O)[C@@H](NC(=O)[C@H](Cc1ccccc1)NC(=O)[C@H](CCC(N)=O)NC(=O)[C@](C)(Cc1ccncc1)NC(=O)[C@H](CCC(N)=O)NC(=O)[C@H](C)NC(=O)[C@H](CCCCNC(=O)COCCOCCNC(=O)CC[C@H](NC(=O)CCCCCCCCCCCCCCCCC(=O)O)C(=O)O)NC(=O)[C@H](CCCN)NC(=O)[C@H](CC(=O)O)NC(=O)[C@H](CC(C)C)NC(=O)[C@](C)(CC(C)C)NC(=O)[C@H](CCC(N)=O)NC(=O)[C@H](CO)NC(=O)[C@H](Cc1ccncc1)NC(=O)[C@H](CC(=O)O)NC(=O)[C@H](CO)NC(=O)[C@@H](NC(=O)[C@H](Cc1ccccc1)NC(=O)[C@@H](NC(=O)CNC(=O)[C@H](CCC(N)=O)NC(=O)C(C)(C)NC(=O)[C@@H](N)Cc1ccc(O)cc1)[C@@H](C)O)[C@@H](C)O)[C@@H](C)CC)C(=O)N[C@@H](CCC(=O)O)C(=O)NC(C)(C)C(=O)NCC(=O)N1CCC[C@H]1C(=O)N[C@@H](CO)C(=O)N[C@@H](CO)C(=O)NCC(=O)N[C@@H](C)C(=O)N1CCC[C@H]1C(=O)N1CCC[C@H]1C(=O)N1CCC[C@H]1C(=O)N[C@@H](CO)C(=O)NCC(=O)N[C@@H](CO)C(=O)N[C@@H](CCC(=O)O)C(=O)N[C@@H](CCC(=O)O)C(N)=O` [Example 1109], the half-maximal effective concentration (EC50) on hGIPR [1] came to 20.2 nM; on hGLP-1R [2] it was 102 nM; at hGLP-1R [3] (setting [5]), 2.3 nM; at hGcgR (setting [5]) it was 10.8 nM; on hGIPR [4] (setting [5]), 0.0626 nM; at human GcgR, 510 nM.
Regarding “H-Y[Aib]QGTFTSD[4Pal]SQ[αMeL]LDKK([AEEA-γGlu-C18 diacid])AQ[αMe4Pal]AFIEYLIE[Aib]GPSSGAPPPSGSE-NH2 [Example 886]”, the EC50 at hGIPR [1] is 26.5 nM; on hGLP-1R [2] it was 271 nM; at hGLP-1R [3] (setting [5]), 2.7 nM; at hGcgR (setting [5]), 4.13 nM; on hGIPR [4] (setting [5]), 0.149 nM; at human GcgR, 540 nM.
As for “H-Y[Aib]QGT[αMePhe(2-F)]TSD[4Pal]SILLDKK([γGlu-γGlu-C18 diacid])AQ[Aib]AFIEYLEEGGPSSGAPPPSGGGE-NH2 [Example 619]”, the concentration giving a half-maximal response (EC50) worked out at 6.78 nM at hGIPR [1]; 94 nM on hGLP-1R [2]; 0.992 nM on hGLP-1R [3]; 6.34 nM at hGcgR; 0.0685 nM on hGIPR [4]; 819 nM at human GcgR.
For the molecule “H-Y[Aib]QGTFTSDFS[Orn][αMeL]LDKK([AEEA-γGlu-C18 diacid])AQ[Aib]AFIEYLLEGGPSSGEPPPSGS-NH2 [Example 131]”, the EC50 is 91.8 nM at hGIPR [1]; 984 nM on hGLP-1R [2]; 5.51 nM on hGLP-1R [3] (setting [5]); 2.64 nM at hGcgR (setting [5]); 0.416 nM at hGIPR [4] (setting [5]); 976 nM at human GcgR.
Consider “H-Y[Aib]QGT[αMePhe(2-F)]TSD[4Pal][αMeS]I[αMeL]LD[Orn]K([γGlu-γGlu-C18 diacid])AQ[Aib][Orn]FI[dE][αMeY]LSEGGPSSGEPPPSGTEEE-NH2 [Example 562]”, for which the EC50 on hGIPR [1] was 10.2 nM; at hGLP-1R [2], 89.5 nM; on hGLP-1R [3], 1.67 nM; at hGcgR, 6 nM; on hGIPR [4], 0.284 nM; at human GcgR it was 427 nM.
Take “Y[Aib]QGT[αMePhe(2-F)]TSD[4Pal]SILLDKK([γGlu-γGlu-C18 diacid])AQ[Aib]AFIEWLQEGGPSSGAPPPSGTEE-NH2 [Example 578]”: the EC50 on hGIPR [1] is 3.73 nM; at hGLP-1R [2], 54.7 nM; on hGLP-1R [3] it was 0.233 nM; on hGcgR it was 6.26 nM; at hGIPR [4] it was 0.0208 nM; on human GcgR, 781 nM.
Consider “H-Y[Aib]QGT[αMePhe(2-F)]TSD[4Pal]SI[αMeL]LD[Orn]K([AEEA-γGlu-C18 diacid])AQ[αMe4Pal]EFI[dE][αMeY]LAEGGPSSGAPPPSGS-NH2 [Example 642]”, for which the concentration giving a half-maximal response (EC50) worked out at 0.791 nM at hGIPR [1]; 67.1 nM at hGLP-1R [2]; 0.474 nM at hGLP-1R [3]; 3.49 nM on hGcgR; 0.00796 nM at hGIPR [4]; 519 nM on human GcgR.
As for “H-Y[Aib]QGT[αMePhe(2-F)]TSD[Phe(4-CN)]SILLDKQAQK([AEEA-γGlu-C20 diacid])AFIQYLLEGGPSSGEPPPSEG-NH2 [Example 341]”, the EC50 stood at 49.6 nM on hGIPR [1]; 395 nM on hGLP-1R [2]; 1.62 nM on hGLP-1R [3] (setting [5]); 10.7 nM at hGcgR (setting [5]); 0.213 nM at hGIPR [4] (setting [5]); 2930 nM at human GcgR.
Regarding “H-Y[Aib]QGTFTSDYSI[αMeL]LDKQAAK([AEEA-AEEA-γGlu-C20 diacid])QFIEWLIEGGPSSGEPPPGEG-NH2 [Example 318]”, the half-maximal effective concentration (EC50) on hGIPR [1] was determined as 52.8 nM; at hGLP-1R [2], 111 nM; on hGLP-1R [3] (setting [5]), 0.698 nM; at hGcgR (setting [5]) it was 5.03 nM; on hGIPR [4] (setting [5]) it was 0.378 nM; at human GcgR, 1970 nM.
As to `CC[C@H](C)[C@H](NC(=O)[C@H](CC(C)C)NC(=O)[C@](C)(Cc1ccc(O)cc1)NC(=O)[C@@H](CCC(=O)O)NC(=O)[C@@H](NC(=O)[C@H](Cc1ccccc1)NC(=O)[C@H](CCC(=O)O)NC(=O)C(C)(C)NC(=O)[C@H](C)NC(=O)[C@H](C)NC(=O)[C@H](CCCCNC(=O)COCCOCCNC(=O)CC[C@H](NC(=O)CCCCCCCCCCCCCCCCC(=O)O)C(=O)O)NC(=O)[C@H](CCCN)NC(=O)[C@H](CC(=O)O)NC(=O)[C@H](CC(C)C)NC(=O)[C@](C)(CC(C)C)NC(=O)[C@@H](NC(=O)[C@](C)(CO)NC(=O)[C@H](Cc1ccncc1)NC(=O)[C@H](CC(=O)O)NC(=O)[C@H](CO)NC(=O)[C@@H](NC(=O)[C@](C)(Cc1ccccc1F)NC(=O)[C@@H](NC(=O)CNC(=O)[C@H](CCC(N)=O)NC(=O)C(C)(C)NC(=O)[C@@H](N)Cc1ccc(O)cc1)[C@@H](C)O)[C@@H](C)O)[C@@H](C)CC)[C@@H](C)CC)C(=O)N[C@@H](CCC(=O)O)C(=O)NCC(=O)NCC(=O)N1CCC[C@H]1C(=O)N[C@@H](CO)C(=O)N[C@@H](CO)C(=O)NCC(=O)N[C@@H](C)C(=O)N1CCC[C@H]1C(=O)N1CCC[C@H]1C(=O)N1CCC[C@H]1C(=O)N[C@@H](CO)C(=O)NCC(=O)N[C@H](C(=O)NCC(=O)N[C@@H](CCC(=O)O)C(N)=O)[C@@H](C)O` [Example 689], the 50% effective concentration (EC50) on hGIPR [1] was found to be 0.951 nM; at hGLP-1R [2] it was 25.1 nM; at hGLP-1R [3] it was 0.214 nM; at hGcgR, 1.81 nM; at hGIPR [4], 0.0104 nM; on human GcgR it was 182 nM.
For the molecule “H-Y[Aib]QGTFTSD[4Pal]SQ[αMeL]LDKK([γGlu-γGlu-C18 diacid])AQ[αMe4Pal]AFIE[αMe4Pal]LIE[Aib]GPSSGAPPPSGTGE-NH2 [Example 1119]”, the concentration for a half-maximal effect (EC50) was 3.95 nM on hGIPR [1]; 152 nM at hGLP-1R [2]; 3.57 nM on hGLP-1R [3] (setting [5]); 7.61 nM at hGcgR (setting [5]); 0.0939 nM at hGIPR [4] (setting [5]); 237 nM at human GcgR.
For the molecule “H-Y[Aib]QGT[αMePhe(2-F)]TSD[4Pal][αMeS]I[αMeL]LD[Orn]K([AEEA-γGlu-C18 diacid])AQ[αMe4Pal]EFI[dE][αMeY]LVEGGPSSGAPPPGGE-NH2 [Example 1154]”, the EC50 was found to be 0.954 nM at hGIPR [1]; 44.5 nM on hGLP-1R [2]; 0.344 nM on hGLP-1R [3] (setting [5]); 6.42 nM on hGcgR (setting [5]); 0.00879 nM on hGIPR [4] (setting [5]); 320 nM at human GcgR.
Regarding “H-Y[Aib]QGTFTSD[4Pal]SQ[αMeL]LDKK([γGlu-γGlu-C18 diacid])AQ[αMe4Pal]AFIEYLIE[Aib]GPSSGAPPPSGSEE-NH2 [Example 899]”, the EC50 worked out at 15.6 nM on hGIPR [1]; 592 nM on hGLP-1R [2]; 4.11 nM on hGLP-1R [3] (setting [5]); 4.4 nM at hGcgR (setting [5]); 0.133 nM at hGIPR [4] (setting [5]); 814 nM at human GcgR.
